In patent US20250129078A1, “ERBB2 INHIBITORS” (Cogent Biosciences, Inc., priority 2023, published 2025) one finds IC50 data, which are given here for 19 compounds.

The assay addresses EGFR WT (Homo sapiens (Human), UniProt P00533). Nature of the assay: ErbB enzyme assay (CisBio HTRF-KinEASE-TK), EGFR WT. It is filed as biochemical. The note with it: ATP at Km (25 μM), 1 h incubation. The essentials:
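Compounds, serially diluted three-fold, were incubated with enzyme for 1 h at ambient temperature. Detection reagents were then added for a further hour, and the 655/620 nm HTRF ratio was normalised to uninhibited and pre-quenched controls. IC50 was fitted with a four-parameter logistic model.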

SMILES strings stand for the structures. Structures can show the parent of a compound that is named as a salt.

EGFR WT, sequence (P00533 25-1210): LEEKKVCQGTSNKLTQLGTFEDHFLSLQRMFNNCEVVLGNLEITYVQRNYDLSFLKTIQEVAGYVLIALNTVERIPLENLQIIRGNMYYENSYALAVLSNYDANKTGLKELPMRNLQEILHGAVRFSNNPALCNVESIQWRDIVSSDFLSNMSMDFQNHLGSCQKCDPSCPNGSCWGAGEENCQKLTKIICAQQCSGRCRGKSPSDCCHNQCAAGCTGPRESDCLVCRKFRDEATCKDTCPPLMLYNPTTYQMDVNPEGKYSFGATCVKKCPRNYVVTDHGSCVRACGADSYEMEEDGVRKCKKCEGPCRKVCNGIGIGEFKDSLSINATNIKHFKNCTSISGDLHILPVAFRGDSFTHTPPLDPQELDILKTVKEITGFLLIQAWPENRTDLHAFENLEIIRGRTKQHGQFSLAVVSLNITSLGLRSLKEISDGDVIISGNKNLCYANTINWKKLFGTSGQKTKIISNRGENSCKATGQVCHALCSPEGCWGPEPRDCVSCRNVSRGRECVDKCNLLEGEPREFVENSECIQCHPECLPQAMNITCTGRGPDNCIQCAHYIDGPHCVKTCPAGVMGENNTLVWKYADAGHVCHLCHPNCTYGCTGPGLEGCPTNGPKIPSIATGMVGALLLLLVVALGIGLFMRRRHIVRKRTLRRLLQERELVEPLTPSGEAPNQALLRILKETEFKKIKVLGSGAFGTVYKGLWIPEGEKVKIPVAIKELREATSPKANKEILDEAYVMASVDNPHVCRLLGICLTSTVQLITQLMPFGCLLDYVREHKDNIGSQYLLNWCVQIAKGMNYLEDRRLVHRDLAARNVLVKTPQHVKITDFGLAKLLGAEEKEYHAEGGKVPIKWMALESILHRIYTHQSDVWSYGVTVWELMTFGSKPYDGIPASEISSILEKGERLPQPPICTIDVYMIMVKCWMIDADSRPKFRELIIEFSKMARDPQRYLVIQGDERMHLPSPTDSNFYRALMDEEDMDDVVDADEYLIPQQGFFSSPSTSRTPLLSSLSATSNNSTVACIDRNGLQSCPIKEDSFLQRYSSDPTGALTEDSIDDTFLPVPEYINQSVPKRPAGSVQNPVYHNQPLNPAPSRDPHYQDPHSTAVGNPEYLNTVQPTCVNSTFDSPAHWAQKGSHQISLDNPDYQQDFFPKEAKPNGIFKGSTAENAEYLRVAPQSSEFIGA

As for `C=CC(=O)N1C2C=C(c3ccc4ncnc(Nc5cc(C)c(Oc6ccc7c(c6)nnn7C)cc5OC)c4n3)CC1CCC2` (stereo not shown) [Compound 413, 1-(3-(4-((2-methoxy-5-methyl-4-((1-methyl-1H-benzo[d][1,2,3]triazol-5-yl)oxy)phenyl)amino)pyrido[3,2-d]pyrimidin-6-yl)-9-azabicyclo[3.3.1]non-2-en-9-yl)prop-2-en-1-one trifluoroacetate], the IC50 is at least 1000 nM.
In the case of `C=CC(=O)N[C@@H]1CN(c2ncc3ncnc(Nc4ccc(Oc5ccc6c(c5)nnn6C)c(C)c4F)c3n2)CC[C@H]1C` [Compound 230, N-((3S,4R)-1-(8-((2-fluoro-3-methyl-4-((1-methyl-1H-benzo[d][1,2,3]triazol-5-yl)oxy)phenyl)amino)pyrimido[5,4-d]pyrimidin-2-yl)-4-methylpiperidin-3-yl)acrylamide] it was 100 to 500 nM; in that of `C=CC(=O)N1CCN(c2ccc3ncnc(Nc4cc(C)c(Oc5cc(F)c6c(c5)ncn6C)cc4OC)c3n2)C[C@H]1C` [Compound 310, (R)-1-(4-(4-((4-((7-fluoro-1-methyl-1H-benzo[d]imidazol-5-yl)oxy)-2-methoxy-5-methylphenyl)amino)pyrido[3,2-d]pyrimidin-6-yl)-2-methylpiperazin-1-yl)prop-2-en-1-one], 100 to 500 nM; in that of `C=CC(=O)N1CCN(c2ncc3ncnc(Nc4ccc(Oc5cc(F)c6c(c5)nnn6C)c(C)c4F)c3n2)C[C@@H]1C1CC1` [Compound 192, (S)-1-(2-cyclopropyl-4-(8-((2-fluoro-4-((7-fluoro-1-methyl-1H-benzo[d][1,2,3]triazol-5-yl)oxy)-3-methylphenyl)amino)pyrimido[5,4-d]pyrimidin-2-y1)piperazin-1-yl)prop-2-en-1-one], 500 to 1000 nM.
The result for `C=CC(=O)N1[C@H](C)CN(c2ccc3ncnc(Nc4ccc(Oc5ccc6c(c5)nnn6C)c(C)c4)c3n2)C[C@H]1C` [Compound 248, 1-((2R,6R)-2,6-dimethyl-4-(4-((3-methyl-4-((1-methyl-1H-benzo[d][1,2,3]triazol-5-yl)oxy)phenyl)amino)pyrido[3,2-d]pyrimidin-6-yl)piperazin-1-yl)prop-2-en-1-one] reads at least 1000 nM.
The result for `C=CC(=O)N[C@@H]1C[C@@H](C)CN(c2ccc3ncnc(Nc4ccc(Oc5ccc6c(c5)nnn6C)c(C)c4F)c3n2)C1` (single isomer, unassigned) [Compound 338] reads 100 to 500 nM; that for `C=CC(=O)N1CCN(c2ccc3ncnc(Nc4ccc(Oc5ccc6c(c5)ncn6C(F)F)c(C)c4F)c3c2)CC1` [Compound 375, 1-(4-(4-((4-((1-(difluoromethyl)-1H-benzo[d]imidazol-5-yl)oxy)-2-fluoro-3-methylphenyl)amino)quinazolin-6-yl)piperazin-1-yl)prop-2-en-1-one], 50 to 100 nM.
As for `C=CC(=O)N1CCN(c2ccc3ncnc(Nc4ccc(Oc5cc6ncnn6cn5)c(C)c4)c3n2)CC1(C)C` [Compound 328, 1-(4-(4-((4-([1,2,4]triazolo[1,5-c]pyrimidin-7-yloxy)-3-methylphenyl)amino)pyrido[3,2-d]pyrimidin-6-yl)-2,2-dimethylpiperazin-1-yl)prop-2-en-1-one], the IC50 is under 50 nM.
The result for `C=CC(=O)N1CCN(c2ncc3ncnc(Nc4ccc(Oc5cc6ncnn6cc5C)c(C)c4)c3n2)C[C@H]1C` [Compound 182] reads 500 to 1000 nM; that for `Cc1cc(Nc2ncnc3cnc(N4CCN(C(=O)/C=C/C(F)F)CC4)nc23)ccc1Oc1ccc2c(c1)nnn2C` [Compound 216, 4,4-difluoro-1-(4-(8-((3-methyl-4-((1-methyl-1H-benzo[d][1,2,3]triazol-5-yl)oxy)phenyl)amino)pyrimido [5,4-d]pyrimidin-2-yl)piperazin-1-yl)but-2-en-1-one], 50 to 100 nM; that for `C=CC(=O)N1CCN(c2ncc3ncnc(Nc4ccc(Oc5cc(F)c6c(c5)ncn6C)c(C)c4F)c3n2)C[C@H]1CC` [Compound 160, (R)-1-(2-ethyl-4-(8-((2-fluoro-4-((7-fluoro-1-methyl-1H-benzo[d]imidazol-5-yl)oxy)-3-methylphenyl)amino)pyrimido[5,4-d]pyrimidin-2-yl)piperazin-1-yl)prop-2-en-1-one], under 50 nM.
In turn, `C=CC(=O)N1C[C@@H](N(C)c2ccc3ncnc(Nc4ccc(Oc5ccc6c(c5)nnn6C)c(C)c4F)c3n2)CC[C@@H]1C` [Compound 267, 1-((2S,5S)-5-((4-((2-fluoro-3-methyl-4-((1-methyl-1H-benzo[d][1,2,3]triazol-5-yl)oxy)phenyl)amino)pyrido[3,2-d]pyrimidin-6-yl)(methyl)amino)-2-methylpiperidin-1-yl)prop-2-en-1-one] came in with an IC50 of at least 1000 nM.
In the case of `C=C(F)C(=O)N1C2C=C(c3ccc4ncnc(Nc5ccc(Oc6ccc7c(c6)nnn7C)c(C)c5)c4n3)CC1CC2` (stereo not shown) [Compound 411, 2-fluoro-1-(3-(4-((3-methyl-4-((1-methyl-1H-benzo[d][1,2,3]triazol-5-yl)oxy)phenyl)amino)pyrido[3,2-d]pyrimidin-6-yl)-8-azabicyclo[3.2.1]oct-2-en-8-yl)prop-2-en-1-one trifluoroacetate] it was at least 1000 nM; in that of `C=CC(=O)N1CCN(c2ccc3ncnc(Nc4ccc(Oc5cc6nnn(C)c6c(C)c5F)c(C)c4)c3n2)C[C@H]1C` [Compound 288, (R)-1-(4-(4-((4-((6-fluoro-1,7-dimethyl-1H-benzo[d][1,2,3]triazol-5-yl)oxy)-3-methylphenyl)amino)pyrido[3,2-d]pyrimidin-6-yl)-2-methylpiperazin-1-yl)prop-2-en-1-one], 100 to 500 nM.
The result for `C=CC(=O)N1CCC(Oc2nc3c(Nc4ccc(Oc5ccc6c(c5)ncn6C)c(C)c4F)ncnc3cc2OC)CC1` [Compound 394, 1-(4-((4-((2-fluoro-3-methyl-4-((1-methyl-1H-benzo[1d]imidazol-5-yl)oxy)phenyl)amino)-7-methoxypyrido[3,2-d]pyrimidin-6-yl)oxy)piperidin-1-yl)prop-2-en-1-one] reads under 50 nM; that for `C=CC(=O)N1CCC(Oc2ncc3ncnc(Nc4ccc(Oc5ccc6c(c5)ncn6C)c(C)c4)c3n2)C(F)(F)C1` (stereo not shown) [Compound 393, 1-(3,3-difluoro-4-((8-((3-methyl-4-((1-methyl-1H-benzo[d]imidazol-5-yl)oxy)phenyl)amino)pyrimido[5,4-d]pyrimidin-2-y1)oxy)piperidin-1-yl)prop-2-en-1-one], under 50 nM.
In the case of `C=CC(=O)N[C@H]1CN(c2ccc3ncnc(Nc4ccc(Oc5ccc6c(c5)nnn6C)c(C)c4F)c3n2)CC[C@@H]1C` [Compound 350, N-((3R,4S)-1-(4-((2-fluoro-3-methyl-4-((1-methyl-1H-benzo[d][1,2,3]triazol-5-yl)oxy)phenyl)amino)pyrido[3,2-d]pyrimidin-6-yl)-4-methylpiperidin-3-yl)acrylamide] it was 100 to 500 nM; in that of `C=CC(=O)N1CCN(c2ncc3ncnc(Nc4ccc(Oc5ccc6c(c5)nnn6C)c(F)c4F)c3n2)CC1` [Compound 44, 1-(4-(8-((2,3-difluoro-4-((1-methyl-1H-benzo[d][1,2,3]triazol-5-yl)oxy)phenyl)amino)pyrimido[5,4-d]pyrimidin-2-yl)piperazin-1-yl)prop-2-en-1-one], 50 to 100 nM; in that of `C=C(F)C(=O)N1CCN(c2ncc3ncnc(Nc4ccc(Oc5ccc6c(c5)nnn6C)c(C)c4)c3n2)C[C@@H]1CF` (single isomer, unassigned) [Compound 218], at least 1000 nM.
